These results are taken from patent US20250145603A1, “CRYSTAL FORMS OF AN ANTI-RSV AGENT” (Enanta Pharmaceuticals, Inc., priority 2023, published 2025).

≈ marks a conversion by molar mass, not a printed value. Entries after “also recorded” stand apart in the source; their conditions may differ.

Series [1] in a line: Physical stability and conversion of solid forms (polymorph screen).
Series [2] in a line: Hygroscopicity by DVS (Dynamic Vapor Sorption). It is filed as physicochemical.
A short description of series [3]: Solubility of Form A in water. It is filed as physicochemical.
Series [4] can be described thus: Solubility of Form A in organic solvents. The format is physicochemical.

As to `O=C1Nc2ccccc2C(c2ccccc2)=N[C@@H]1Nc1nnc(-c2ncc(C(F)(F)F)cc2N2CCOCC2)o1` [Amorphous], the “conversion to another solid form” value in series [1] is “Crystallizes to A”. Besides, the hygroscopicity entry in series [2] is “Appeared non-hygroscopic”.
Usually solubility stands for how much of the substance goes into solution per volume. Low values mean little dissolved substance, high ones much dissolved substance. In the case of `O=C1Nc2ccccc2C(c2ccccc2)=N[C@@H]1Nc1nnc(-c2ncc(C(F)(F)F)cc2N2CCOCC2)o1` [Form A], the solubility is around 2 µg/mL (≈ 3.64 µM) in series [3] (aqueous buffer, from pH 4-8) and 13.3 µg/mL (≈ 24.2 µM) in series [3] (simulated gastric fluid, at pH 1). Besides, the hygroscopicity entry in series [2] is recorded as “not hygroscopic; also recorded: Anhydrous/unsolvated, non-hygroscopic”. In series [2] (DVS, adsorption to 95% RH), the “weight gain during adsorption” value is given as 0.1 wt %. In series [2] (DVS, desorption to 5% RH), the “moisture loss on desorption” value was “losing all of the gained moisture”. Besides, the “solubility in organic solvents” value is “relatively poor solubility” in series [4] (alcohols, ethyl acetate, acetonitrile) and “highly soluble” in series [4] (dichloromethane, 1,4-dioxane, tetrahydrofuran, acetone).
`O=C1Nc2ccccc2C(c2ccccc2)=N[C@@H]1Nc1nnc(-c2ncc(C(F)(F)F)cc2N2CCOCC2)o1` [Form D]: in series [1], the “conversion to another solid form” value is recorded as “converts to Form F upon air drying”.
Still for that read-out and setting: as for `O=C1Nc2ccccc2C(c2ccccc2)=N[C@@H]1Nc1nnc(-c2ncc(C(F)(F)F)cc2N2CCOCC2)o1` [Form F], the entry is “Converts to G in ethyl acetate”.
Regarding `O=C1Nc2ccccc2C(c2ccccc2)=N[C@@H]1Nc1nnc(-c2ncc(C(F)(F)F)cc2N2CCOCC2)o1` [Form G], the “physical stability of solid form” value in series [1] was “physically stable at ambient temperature”.
As to `O=C1Nc2ccccc2C(c2ccccc2)=N[C@@H]1Nc1nnc(-c2ncc(C(F)(F)F)cc2N2CCOCC2)o1` [Material C], in series [1], the “conversion to another solid form” value is “desolvate readily to Form A; also recorded: Likely converts to A on drying”.
